From ChEMBL document CHEMBL1135139, “Solid-phase synthesis of thrombin inhibitors” (Bioorg Med Chem Lett, 2002)

Target: Prothrombin (Homo sapiens, UniProt P00734)
Assay: In vitro Inhibitory concentration against Thrombin

## N=C(N)c1ccc(CNC(=O)[C@@H]2C=CCN2C(=O)[C@@H](CC2CCCCC2)NCC(=O)O)s1
  IC50: 3.6 nM
